The values that follow come from US20260108546A1 (ELI LILLY AND COMPANY, priority 2024, published 2026).

Structures are written as SMILES.

For the experiment, the target named is T1, hGIP-R (Homo sapiens, UniProt P48546).
T1 construct: expressed in transfected cells; host or cells: HEK-293 clonal cell lines
T1 sequence (P48546 22-466): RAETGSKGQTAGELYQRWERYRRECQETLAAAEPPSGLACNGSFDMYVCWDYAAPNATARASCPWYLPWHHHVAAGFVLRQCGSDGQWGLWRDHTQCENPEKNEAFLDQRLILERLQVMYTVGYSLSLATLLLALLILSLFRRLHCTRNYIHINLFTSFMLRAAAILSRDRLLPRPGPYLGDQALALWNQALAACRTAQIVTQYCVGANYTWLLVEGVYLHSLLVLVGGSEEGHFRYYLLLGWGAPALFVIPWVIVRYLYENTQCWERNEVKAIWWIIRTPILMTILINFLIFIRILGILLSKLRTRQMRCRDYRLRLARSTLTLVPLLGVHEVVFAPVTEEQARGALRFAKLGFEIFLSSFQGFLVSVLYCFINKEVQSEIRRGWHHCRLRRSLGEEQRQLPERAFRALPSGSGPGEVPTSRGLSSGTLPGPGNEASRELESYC
In words: Functional hGIP-R Assay (cAMP formation, HTRF). Type of experiment: cell-based. The conditions noted are these: for Emax: cAMP efficacy, percent of maximal response to GIP(1-42)OH, 37° C., 0.1% bovine casein, arithmetic mean ± SEM; for EC50: cAMP potency, HEK-293 cells expressing hGIP-R, incubated at 37° C. in the presence of 0.1% bovine casein, geometric mean, read-out: Human GIP-R EC50, nM (SEM, n). The gist of the method: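 Relative EC50 and Emax came from four-parameter logistic fits of cAMP as a percent of the human GIP (1-42) OH maximal response. The cAMP was measured by competitive HTRF after 30 min, 37 °C compound exposure of hGIP-R HEK-293 clones in IBMX (250 μM)-containing medium.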

In general, Emax refers to the size of the effect at its maximum, as opposed to the concentration needed. Usually EC50 stands for the concentration at which the effect is half-maximal. `CC(C)(Cn1nc(C(F)(F)F)cc1C1CC1)NC(=O)[C@@H](Cc1cnc2ncccn12)NC(=O)[C@H]1C[C@@H]1c1ccc(NC(=O)C2CC(F)(F)C2)cc1` [Example 40, N-(4-((1S,2S)-2-(((R)-1-((1-(5-cyclopropyl-3-(trifluoromethyl)-1H-pyrazol-1-yl)-2-methylpropan-2-yl)amino)-3-(imidazo[1,2-a]pyrimidin-3-yl)-1-oxopropan-2-yl)carbamoyl)cyclopropyl)phenyl)-3,3-difluorocyclobutane-1-carboxamide]: the Emax was 60.7 ± 0.306% and the EC50 stood at 3.55 nM.
Take `Cn1cc(C[C@@H](NC(=O)[C@H]2C[C@@H]2c2ccc(-c3cnc4nn(C)cc4c3)cc2)C(=O)NC(C)(C)Cn2nc(C(F)(F)F)cc2-c2cn[nH]c2)cn1` [Example 41, (1S,2S)-N—((R)-1-((2-Methyl-1-(5-(trifluoromethyl)-1′H,2H-[3,4′-bipyrazol]-2-yl)propan-2-yl)amino)-3-(1-methyl-1H-pyrazol-4-yl)-1-oxopropan-2-yl)-2-(4-(2-methyl-2H-pyrazolo[3,4-b]pyridin-5-yl)phenyl)cyclopropane-1-carboxamide]: the Emax stood at 111 ± 4.76% and the EC50 was determined as 20.2 nM.
In the same order, the values of `Cn1cc(C[C@@H](NC(=O)[C@H]2C[C@@H]2c2ccc(-c3cnc4nn(C)cc4c3)cc2)C(=O)NC(C)(C)Cn2nc(C(F)(F)F)cc2-c2cc[nH]n2)cn1` [Example 42] are 114 ± 10.2% and 52.7 nM.
`Cn1cc2cc(-c3ccc([C@H]4C[C@@H]4C(=O)N[C@H](Cc4cnn(C(F)F)c4)C(=O)NC(C)(C)Cn4nc(C(F)(F)F)cc4-c4cn[nH]n4)cc3)cnc2n1` [Example 43, (1S,2S)-N-((R)-1-((1-(5-(2H-1,2,3-Triazol-4-yl)-3-(trifluoromethyl)-1H-pyrazol-1-yl)-2-methylpropan-2-yl)amino)-3-(1-(difluoromethyl)-1H-pyrazol-4-yl)-1-oxopropan-2-yl)-2-(4-(2-methyl-2H-pyrazolo[3,4-b]pyridin-5-yl)phenyl)cyclopropane-1-carboxamide]: the Emax stood at 116 ± 4.26% and the EC50 amounted to 61.1 nM.
With `Cn1cc(C[C@@H](NC(=O)[C@H]2C[C@@H]2c2ccc(-c3cnc4nn(C)cc4c3)cc2)C(=O)NC(C)(C)Cn2nc(C(F)F)cc2-c2cn[nH]n2)cn1` [Example 44, (1S,2S)-N-((R)-1-((1-(3-(Difluoromethyl)-5-(2H-1,2,3-triazol-4-yl)-1H-pyrazol-1-yl)-2-methylpropan-2-yl)amino)-3-(1-methyl-1H-pyrazol-4-yl)-1-oxopropan-2-yl)-2-(4-(2-methyl-2H-pyrazolo[3,4-b]pyridin-5-yl)phenyl)cyclopropane-1-carboxamide], the Emax worked out at 111 ± 17.5% and the EC50 came to 122 nM.
In the same order, the values of `CC(C)(Cn1cc(C(F)(F)F)cn1)NC(=O)[C@@H](Cc1cnc2ncccn12)NC(=O)[C@H]1C[C@@H]1c1ccc(NC(=O)C2CCC(F)(F)CC2)cc1` [Example 45, 4,4-Difluoro-N-(4-((1S,2S)-2-(((R)-3-(imidazo[1,2-a]pyrimidin-3-yl)-1-((2-methyl-1-(4-(trifluoromethyl)-1H-pyrazol-1-yl)propan-2-yl)amino)-1-oxopropan-2-yl)carbamoyl)cyclopropyl)phenyl)cyclohexane-1-carboxamide] are 79.8 ± 9.84% and 10.7 nM.
In the same order, the values of `CC(C)(Cn1cc(C(F)(F)F)cn1)NC(=O)[C@@H](Cc1cnc2ncccn12)NC(=O)[C@H]1C[C@@H]1c1ccc(NC(=O)C2CC(F)(F)C2)cc1` [Example 46, 3,3-Difluoro-N-(4-((1S,2S)-2-(((R)-3-(imidazo[1,2-a]pyrimidin-3-yl)-1-((2-methyl-1-(4-(trifluoromethyl)-1H-pyrazol-1-yl)propan-2-yl)amino)-1-oxopropan-2-yl)carbamoyl)cyclopropyl)phenyl) cyclobutane-1-carboxamide] are 66.4 ± 2.06% and 77.9 nM.
On the same counts, the results for `CC(C)(Cn1cc(C(F)(F)F)cn1)NC(=O)[C@@H](Cc1cnc2ncccn12)NC(=O)[C@H]1C[C@@H]1c1ccc(-c2cnc3nccn3c2)cc1` [Example 47, (1S,2S)-N-((R)-3-(Imidazo[1,2-a]pyrimidin-3-yl)-1-((2-methyl-1-(4-(trifluoromethyl)-1H-pyrazol-1-yl)propan-2-yl)amino)-1-oxopropan-2-yl)-2-(4-(imidazo[1,2-a]pyrimidin-6-yl)phenyl) cyclopropane-1-carboxamide] are 84.6 ± 1.49% and 41.5 nM.
As for `CC(C)(Cc1ccc(F)cc1)NC(=O)[C@@H](Cc1cnc2ncccn12)NC(=O)[C@H]1C[C@@H]1c1ccc(NC(=O)C2CC(F)(F)C2)cc1` [Example 48, 3,3-Difluoro-N-(4-((1S,2S)-2-(((R)-1-((1-(4-fluorophenyl)-2-methylpropan-2-yl)amino)-3-(imidazo[1,2-a]pyrimidin-3-yl)-1-oxopropan-2-yl)carbamoyl)cyclopropyl)phenyl)cyclobutane-1-carboxamide], the Emax is 56.5 ± 4.38% and the EC50 is 76.9 nM.
Turning to `CC(C)(Cc1ccc(F)cc1)NC(=O)[C@@H](Cc1cnc2ncccn12)NC(=O)[C@H]1C[C@@H]1c1ccc(NC(=O)C2CCC(F)(F)CC2)cc1` [Example 49, 4,4-Difluoro-N-(4-((1S,2S)-2-(((R)-1-((1-(4-fluorophenyl)-2-methylpropan-2-yl)amino)-3-(imidazo[1,2-a]pyrimidin-3-yl)-1-oxopropan-2-yl)carbamoyl)cyclopropyl)phenyl)cyclohexane-1-carboxamide], the Emax is 72.6 ± 3.47% and the EC50 came to 12.6 nM.
In the same order, the values of `Cn1cc(C[C@@H](NC(=O)[C@H]2C[C@@H]2c2ccc(-c3cnc4nn(C)cc4c3)cc2)C(=O)NC(C)(C)Cn2nc(C(F)(F)F)cc2C2CCC2)cn1` [Example 51, (1S,2S)-N—((R)-1-((1-(5-Cyclobutyl-3-(trifluoromethyl)-1H-pyrazol-1-yl)-2-methylpropan-2-yl)amino)-3-(1-methyl-1H-pyrazol-4-yl)-1-oxopropan-2-yl)-2-(4-(2-methyl-2H-pyrazolo[3,4-b]pyridin-5-yl)phenyl)cyclopropane-1-carboxamide] are 120 ± 6.49% and 62.7 nM.
In the same order, the values of `Cn1cc(C[C@@H](NC(=O)[C@H]2C[C@@H]2c2ccc(-c3cnc4nn(C)cc4c3)cc2)C(=O)NC(C)(C)Cn2nc(C(F)(F)F)cc2-c2ccn(C)c(=O)c2)cn1` [Example 52, (1S,2S)-N—((R)-1-((2-Methyl-1-(5-(1-methyl-2-oxo-1,2-dihydropyridin-4-yl)-3-(trifluoromethyl)-1H-pyrazol-1-yl)propan-2-yl)amino)-3-(1-methyl-1H-pyrazol-4-yl)-1-oxopropan-2-yl)-2-(4-(2-methyl-2H-pyrazolo[3,4-b]pyridin-5-yl)phenyl)cyclopropane-1-carboxamide] are 98.4 ± 3.96% and 53 nM.
In the same order, the values of `Cn1cc(C[C@@H](NC(=O)[C@H]2C[C@@H]2c2ccc(-c3cnc4nn(C)cc4c3)cc2)C(=O)NC(C)(C)Cn2nc(C(F)(F)F)cc2-c2cnn(C3COC3)c2)cn1` [Example 54, (1S,2S)-N-((R)-1-((2-Methyl-1-(1′-(oxetan-3-yl)-5-(trifluoromethyl)-1′H,2H-[3,4′-bipyrazol]-2-yl)propan-2-yl)amino)-3-(1-methyl-1H-pyrazol-4-yl)-1-oxopropan-2-yl)-2-(4-(2-methyl-2H-pyrazolo[3,4-b]pyridin-5-yl)phenyl) cyclopropane-1-carboxamide] are 137 ± 14.1% and 76.8 nM.
